What was measured:
Mu-type opioid receptor [1] = molecular target: T1, Mu-type opioid receptor (Rattus norvegicus, UniProt P33535); test: Agonist activity at rat mu opioid receptor expressed in rat C6 cells assessed as stimulation of [35S]-GTPgammaS binding after 1 hr by liquid scintillation counting analysis; format: functional, cell-based
[2] = molecular target: T2, Delta-type opioid receptor (Rattus norvegicus, UniProt P33533); test: Agonist activity at rat delta opioid receptor expressed in rat C6 cells assessed as stimulation of [35S]-GTPgammaS binding after 1 hr by liquid scintillation counting analysis; format: functional, cell-based
[3] = molecular target: T2, Delta-type opioid receptor; test: Displacement of [3H]diprenorphine from rat delta opioid receptor expressed in rat C6 cell membranes after 1 hr by liquid scintillation counting analysis
[4] = molecular target: T3, Kappa-type opioid receptor (Homo sapiens, UniProt P41145); test: Agonist activity at human kappa opioid receptor expressed in CHO cells assessed as stimulation of [35S]-GTPgammaS binding after 1 hr by liquid scintillation counting analysis; format: functional, cell-based
Mu-type opioid receptor [5] = molecular target: T1, Mu-type opioid receptor; test: Displacement of [3H]diprenorphine from rat mu opioid receptor expressed in rat C6 cell membranes after 1 hr by liquid scintillation counting analysis
[6] = molecular target: T3, Kappa-type opioid receptor; test: Displacement of [3H]diprenorphine from human kappa opioid receptor expressed in CHO cell membranes after 1 hr by liquid scintillation counting analysis
[7] = molecular target: T3, Kappa-type opioid receptor; test: Binding affinity to kappa opioid receptor (unknown origin)
Mu-type opioid receptor [8] = molecular target: Mu-type opioid receptor (Homo sapiens, UniProt P35372); test: Binding affinity to mu opioid receptor (unknown origin)
[9] = molecular target: Delta-type opioid receptor (Homo sapiens, UniProt P41143); test: Binding affinity to delta opioid receptor (unknown origin)
[10] = molecular target: Mu-type opioid receptor (Rattus norvegicus) (UniProt P33535); test: Agonist activity at rat mu opioid receptor expressed in rat C6 cells assessed as stimulation of [35S]-GTPgammaS binding at 10 uM after 1 hr by liquid scintillation counting analysis relative to DAMGO; format: functional, cell-based
[11] = molecular target: T3, Kappa-type opioid receptor; test: Agonist activity at human kappa opioid receptor expressed in CHO cells assessed as stimulation of [35S]-GTPgammaS binding at 10 uM after 1 hr by liquid scintillation counting analysis relative to U69,593; format: functional, cell-based

Mu-type opioid receptor (Rattus norvegicus), sequence (P33535 whole entry): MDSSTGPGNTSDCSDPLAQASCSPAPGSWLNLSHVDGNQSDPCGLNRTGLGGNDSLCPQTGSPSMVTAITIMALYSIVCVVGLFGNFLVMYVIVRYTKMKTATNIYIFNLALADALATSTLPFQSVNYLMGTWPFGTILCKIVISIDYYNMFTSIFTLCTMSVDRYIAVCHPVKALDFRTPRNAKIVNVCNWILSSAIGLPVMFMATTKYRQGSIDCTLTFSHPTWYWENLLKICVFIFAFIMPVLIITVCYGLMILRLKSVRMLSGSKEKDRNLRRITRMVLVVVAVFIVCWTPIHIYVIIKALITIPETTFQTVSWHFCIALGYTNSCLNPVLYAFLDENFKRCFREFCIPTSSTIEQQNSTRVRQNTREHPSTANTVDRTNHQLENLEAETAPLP
T1 sequence (P33535 whole entry): as above
T3 sequence (P41145 whole entry): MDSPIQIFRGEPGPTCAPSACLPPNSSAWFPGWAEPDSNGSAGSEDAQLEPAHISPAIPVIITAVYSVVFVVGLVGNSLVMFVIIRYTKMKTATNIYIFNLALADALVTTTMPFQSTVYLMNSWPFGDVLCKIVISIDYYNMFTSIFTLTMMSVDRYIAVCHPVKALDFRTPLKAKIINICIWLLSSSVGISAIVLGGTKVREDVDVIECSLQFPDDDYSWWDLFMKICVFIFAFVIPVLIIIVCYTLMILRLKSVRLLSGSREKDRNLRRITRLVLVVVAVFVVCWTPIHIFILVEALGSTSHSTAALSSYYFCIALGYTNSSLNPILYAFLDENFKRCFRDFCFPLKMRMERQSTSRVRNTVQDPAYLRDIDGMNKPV
T2 sequence (P33533 whole entry): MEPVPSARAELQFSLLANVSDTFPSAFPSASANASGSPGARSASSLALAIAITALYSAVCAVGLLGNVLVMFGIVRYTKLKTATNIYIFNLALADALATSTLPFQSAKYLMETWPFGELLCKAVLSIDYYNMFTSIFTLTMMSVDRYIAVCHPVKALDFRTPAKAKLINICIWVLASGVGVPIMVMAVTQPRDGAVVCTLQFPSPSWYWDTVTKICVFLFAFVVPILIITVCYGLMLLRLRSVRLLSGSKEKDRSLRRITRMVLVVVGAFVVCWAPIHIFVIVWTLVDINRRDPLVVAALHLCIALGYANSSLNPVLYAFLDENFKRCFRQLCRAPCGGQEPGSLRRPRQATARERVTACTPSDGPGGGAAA
Delta-type opioid receptor (Homo sapiens, UniProt P41143), sequence (P41143 whole entry): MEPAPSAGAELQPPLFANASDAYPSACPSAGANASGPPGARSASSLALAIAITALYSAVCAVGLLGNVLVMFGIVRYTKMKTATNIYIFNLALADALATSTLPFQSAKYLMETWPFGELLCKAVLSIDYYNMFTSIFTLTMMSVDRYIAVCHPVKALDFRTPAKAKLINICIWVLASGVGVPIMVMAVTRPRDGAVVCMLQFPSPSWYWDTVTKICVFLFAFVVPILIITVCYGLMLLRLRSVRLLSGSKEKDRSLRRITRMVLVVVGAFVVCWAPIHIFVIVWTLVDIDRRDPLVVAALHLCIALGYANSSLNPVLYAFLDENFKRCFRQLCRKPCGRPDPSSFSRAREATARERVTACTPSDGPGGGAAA
Mu-type opioid receptor (Homo sapiens, UniProt P35372), sequence (P35372 whole entry): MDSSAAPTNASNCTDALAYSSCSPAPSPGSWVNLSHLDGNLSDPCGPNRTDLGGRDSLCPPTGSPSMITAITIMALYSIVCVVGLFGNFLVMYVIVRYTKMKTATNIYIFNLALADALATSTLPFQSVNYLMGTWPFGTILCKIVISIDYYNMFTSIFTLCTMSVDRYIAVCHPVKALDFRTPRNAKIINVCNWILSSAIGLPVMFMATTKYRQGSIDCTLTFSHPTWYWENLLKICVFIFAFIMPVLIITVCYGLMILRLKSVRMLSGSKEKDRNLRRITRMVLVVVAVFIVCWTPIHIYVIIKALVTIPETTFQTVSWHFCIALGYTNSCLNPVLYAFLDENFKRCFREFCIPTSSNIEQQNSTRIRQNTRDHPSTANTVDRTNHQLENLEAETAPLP

| SMILES | EC50 (Mu-type opioid receptor [1]; c6) | EC50 [2] | Ki [3] | EC50 ([4]; cho) | Ki (Mu-type opioid receptor [5]) | Ki [6] | Ki [7] | Ki (Mu-type opioid receptor [8]) | Ki [9] | EC50 (Mu-type opioid receptor [1]; read-out: EC50) | %max [10] | %max [11] | EC50 ([4]; read-out: EC50) |
| --- | --- | --- | --- | --- | --- | --- | --- | --- | --- | --- | --- | --- | --- |
| Cc1cc(O)cc(C)c1C[C@H](N)C(=O)N1CCC(Cc2ccccc2)c2ccccc21 (stereo partly specified) | Not Active | Not Active | 14 nM | Not Active | 29 nM | 310 nM |  |  |  |  |  |  |  |
| Cc1cc(O)cc(C)c1C[C@H](N)C(=O)N1CCCc2ccccc21 |  |  |  |  |  |  | 36.5 nM | 25.8 nM | 33 nM |  |  |  |  |
| Cc1cc(O)cc(C)c1C[C@H](N)C(=O)N1CCN(CCCCc2ccccc2)CC1 |  | Not Active | 6.6 nM | Not Active | 0.45 nM | 78 nM |  |  |  | 64 nM | 43% |  |  |
| Cc1cc(O)cc(C)c1C[C@H](N)C(=O)N1CCN(CCCCCc2ccccc2)CC1 |  | Not Active | 6.9 nM |  | 0.42 nM | 39 nM |  |  |  | 53 nM | 42% | 12% | 660 nM |
| Cc1cc(O)cc(C)c1C[C@H](N)C(=O)N1CCC(CCCc2ccccc2)CC1 |  | Not Active | 12 nM | Not Active | 2 nM | 110 nM |  |  |  | 119 nM | 26% |  |  |
| Cc1cc(O)cc(C)c1C[C@H](N)C(=O)N1CCC(Cc2ccccc2)CC1 | Not Active | Not Active | 7.8 nM | Not Active | 1.4 nM | 140 nM |  |  |  |  |  |  |  |
| Cc1cc(O)cc(C)c1C[C@H](N)C(=O)N1CCN(CCCc2cccc3ccccc23)CC1 |  | Not Active |  | Not Active |  |  |  |  |  |  |  |  |  |
| Cc1cc(O)cc(C)c1C[C@H](N)C(=O)N1CCN(C/C=C\Cc2ccccc2)CC1 |  | Not Active | 28 nM | Not Active | 0.3 nM |  |  |  |  | 41 nM | 49% |  |  |
| Cc1cc(O)cc(C)c1C[C@H](N)C(=O)N1CCN(C/C=C/c2cccc3ccccc23)CC1 | Not Active | Not Active |  | Not Active |  |  |  |  |  |  |  |  |  |
| Cc1cc(O)cc(C)c1C[C@H](N)C(=O)N1CCN(CCC(c2ccccc2)c2ccccc2)CC1 | Not Active | Not Active | 21 nM | Not Active | 1.1 nM | 150 nM |  |  |  |  |  |  |  |
| Cc1cc(O)cc(C)c1C[C@H](N)C(=O)N1CCN(CCCc2ccccc2)CC1 |  | Not Active | 36 nM | Not Active | 3.8 nM | 250 nM |  |  |  | 150 nM | 23% |  |  |
| Cc1cc(O)cc(C)c1C[C@H](N)C(=O)N1CCN(C/C=C/Cc2ccccc2)CC1 |  | Not Active | 23 nM |  | 0.29 nM |  |  |  |  | 20 nM | 36% |  |  |
